What all share (experiment): ≥ marks a high value that may be exact or a test limit, other limits are often not marked, values filed in µg/mL are converted to µM
For assay [1], the system named is Staphylococcus aureus NCTC 8325.
In assay [2] the test system is Escherichia coli ATCC 25922.
For assay [3], the system named is Candida albicans ATCC 90028.
Assay [4] deals with Staphylococcus epidermidis KCTC 1917.
The subject of assay [5] is Bacillus subtilis KCTC 3068.
Assay [6] deals with Staphylococcus aureus KCTC 1621.
Assay [7] deals with Escherichia coli KCTC 1682.
Assay [8] has as its system Pseudomonas aeruginosa KCTC 1637.
Assay [9] has as its system Salmonella typhimurium KCTC 1926.
The test system of assay [10] is Staphylococcus epidermidis C621.
Assay [11] concerns Enterococcus faecalis ATCC 29212.
For a further assay, the system named is Escherichia coli UB1005.
For assay [12], the system named is Pseudomonas aeruginosa ATCC 27853.
Assay [13] relates to Bacillus subtilis ATCC 6633.
For assay [14], the system named is Staphylococcus aureus ATCC 25923.
In assay [15] the test system is Escherichia coli ATCC 11775.

≈ marks a conversion by molar mass, not a printed value.

Take `CC[C@H](C)[C@H](NC(=O)CNC(=O)[C@H](CO)NC(=O)[C@H](CC(C)C)NC(=O)[C@H](CC(C)C)NC(=O)[C@H](CCCCN)NC(=O)CNC(=O)[C@H](CC(C)C)NC(=O)[C@@H](NC(=O)[C@@H]1CCCN1C(=O)[C@H](CC(C)C)NC(=O)[C@@H](N)Cc1ccccc1)[C@@H](C)CC)C(=O)N[C@@H](CC(C)C)C(N)=O` [FLPILGKLLSGIL]: the MIC in [1] was 15 µM (≈ 20.7 µg/mL); in assay [2], more than 100 µM.

As to `CC[C@H](C)[C@H](NC(=O)[C@H](CC(C)C)NC(=O)[C@H](CCCCN)NC(=O)[C@H](CCCCN)NC(=O)[C@@H](NC(=O)[C@H](C)NC(=O)[C@H](CCCCN)NC(=O)[C@@H](NC(=O)[C@H](C)NC(=O)[C@H](Cc1cnc[nH]1)NC(=O)[C@@H]1CCCN1C(=O)[C@@H](NC(=O)[C@H](CC(C)C)NC(=O)[C@@H]1CCCN1C(=O)[C@H](CCCCN)NC(=O)[C@@H](NC(=O)[C@H](Cc1ccc(O)cc1)NC(=O)[C@H](CCCCN)NC(=O)[C@H](CCSC)NC(=O)[C@H](Cc1ccccc1)NC(=O)CN)[C@@H](C)CC)[C@@H](C)CC)C(C)C)[C@@H](C)CC)C(=O)O` [GFMKYIKPLIPHAVKAIKKLI], the MIC was not below 200 µM in assay [3], not below 50 µM in assay [1] and 6.25 µM (≈ 15.1 µg/mL) in assay [2].

In the case of `CC[C@H](C)[C@H](NC(=O)CNC(=O)CNC(=O)[C@@H](NC(=O)[C@H](Cc1ccccc1)NC(=O)[C@H](CC(C)C)NC(=O)[C@H](CO)NC(=O)[C@H](CC(C)C)NC(=O)[C@@H](NC(=O)CN)[C@@H](C)CC)[C@@H](C)O)C(=O)N[C@@H](CCCCN)C(=O)N[C@@H](C)C(=O)N[C@@H](CC(C)C)C(=O)NCC(=O)N[C@@H](CCCCN)C(=O)N[C@H](C(=O)N[C@@H](CC(C)C)C(=O)N[C@@H](Cc1ccccc1)C(=O)N[C@@H](CCCCN)C(=O)N[C@@H](CCSC)C(=O)N[C@@H](C)C(=O)NCC(=O)N[C@@H](CCCCN)C(=O)N[C@@H](C)C(=O)NCC(=O)N[C@@H](C)C(=O)N[C@@H](CCC(=O)O)C(=O)N[C@@H](Cc1cnc[nH]1)C(=O)N[C@@H](CC(C)C)C(=O)N[C@@H](C)C(=O)N[C@H]1CSSC[C@@H](C(=O)O)NC(=O)[C@H](CCC(N)=O)NC(=O)[C@H](CC(N)=O)NC(=O)[C@H]([C@@H](C)O)NC(=O)[C@H](C)NC(=O)[C@H](CCCCN)NC1=O)[C@@H](C)O` [GILSLFTGGIKALGKTLFKMAGKAGAEHLACKATNQC], the MIC in assay [3] is not below 53 µM; in assay [1], 3 µM (≈ 11.2 µg/mL); in assay [2], 6 µM (≈ 22.5 µg/mL).

For `CC[C@H](C)[C@@H]1NC(=O)[C@H](CCCCN)NC(=O)[C@@H](NC(=O)[C@H](CCCCN)NC(=O)[C@H](CC(C)C)NC(=O)[C@H](CCCCN)NC(=O)[C@H](CC(=O)O)NC(=O)[C@H](CC(C)C)NC(=O)[C@H](CCSC)NC(=O)[C@H](CO)NC(=O)[C@H](C)NC(=O)[C@H](C)NC(=O)[C@@H](NC(=O)[C@@H](NC(=O)[C@H](CCCCN)NC(=O)[C@H](C)NC(=O)[C@@H](NC(=O)CNC(=O)[C@H](CCCCN)NC(=O)[C@@H](NC(=O)[C@@H](NC(=O)[C@H](CC(=O)O)NC(=O)[C@H](CC(C)C)NC(=O)[C@H](CC(C)C)NC(=O)CN)[C@@H](C)O)[C@@H](C)CC)C(C)C)[C@@H](C)O)C(C)C)CSSC[C@@H](C(=O)O)NC(=O)CNC(=O)[C@H](CO)NC1=O` [GLLDTIKGVAKTVAASMLDKLKCKISGC], the MIC in assay [3] is not below 35 µM; in assay [1], 2 µM (≈ 5.73 µg/mL); in [2] it was 2 µM (≈ 5.73 µg/mL).

As for `CC[C@H](C)[C@H](N)C(=O)N[C@@H](CC(C)C)C(=O)N[C@@H](CCCCN)C(=O)N[C@@H](Cc1c[nH]c2ccccc12)C(=O)N[C@@H](CCCCN)C(=O)N[C@@H](Cc1c[nH]c2ccccc12)C(=O)N[C@@H](CCCCN)C(=O)N[C@@H](Cc1c[nH]c2ccccc12)C(=O)N[C@@H](Cc1c[nH]c2ccccc12)C(=O)N1CCC[C@H]1C(=O)N[C@@H](Cc1c[nH]c2ccccc12)C(=O)N[C@@H](CCCN=C(N)N)C(=O)N[C@@H](CCCN=C(N)N)C(N)=O` [ILKWKWKWWPWRR], the MIC in assay [4], in assay [5], in [6], in assay [7], in assay [8] and in [9] was 5.08 µM (≈ 10 µg/mL) each time.

In the case of `CC[C@H](C)[C@H](N)C(=O)N[C@@H](CC(C)C)C(=O)N[C@@H](CCCCN)C(=O)N[C@@H](Cc1c[nH]c2ccccc12)C(=O)N[C@@H](CCCCN)C(=O)N[C@@H](Cc1c[nH]c2ccccc12)C(=O)N1CCC[C@H]1C(=O)N[C@@H](Cc1c[nH]c2ccccc12)C(=O)N[C@@H](Cc1c[nH]c2ccccc12)C(=O)N[C@@H](CCCCN)C(=O)N[C@@H](Cc1c[nH]c2ccccc12)C(=O)N[C@@H](CCCN=C(N)N)C(=O)N[C@@H](CCCN=C(N)N)C(N)=O` [ILKWKWPWWKWRR], the MIC in assay [4] is 5.08 µM (≈ 10 µg/mL); in assay [5] it was 2.54 µM (≈ 5 µg/mL); in assay [6] it was 2.54 µM (≈ 5 µg/mL); in [7] it was 5.08 µM (≈ 10 µg/mL); in [8] it was 5.08 µM (≈ 10 µg/mL); in assay [9] it was 5.08 µM (≈ 10 µg/mL).

In the case of `CC[C@H](C)[C@H](NC(=O)[C@H](CCCCN)NC(=O)[C@H](CCCCN)NC(=O)[C@H](Cc1ccccc1)NC(=O)[C@H](CC(C)C)NC(=O)[C@H](CCCCN)NC(=O)[C@H](C)NC(=O)[C@@H](N)CCCCN)C(=O)N1CCC[C@H]1C(=O)N[C@@H](CCCCN)C(=O)N[C@@H](Cc1ccccc1)C(=O)N[C@@H](CC(C)C)C(=O)N[C@@H](Cc1cnc[nH]1)C(=O)N[C@@H](CC(C)C)C(=O)N[C@@H](Cc1c[nH]c2ccccc12)C(=O)N[C@@H](CCCCN)C(=O)N[C@@H](CCCCN)C(=O)N[C@@H](Cc1ccccc1)C(N)=O` [KAKLFKKIPKFLHLWKKF], the MIC was found to be 1 µM (≈ 2.3 µg/mL) in assay [4]; 2 µM (≈ 4.6 µg/mL) in [5]; 2 µM (≈ 4.6 µg/mL) in [6]; 2 µM (≈ 4.6 µg/mL) in assay [7]; 1 µM (≈ 2.3 µg/mL) in assay [8]; 1 µM (≈ 2.3 µg/mL) in assay [9].

In the case of `C[C@H](NC(=O)[C@H](C)NC(=O)[C@H](Cc1ccccc1)NC(=O)[C@H](C)NC(=O)[C@H](C)NC(=O)[C@H](Cc1ccccc1)NC(=O)[C@H](C)NC(=O)[C@H](C)NC(=O)[C@H](Cc1ccccc1)NC(=O)[C@H](C)NC(=O)[C@H](C)NC(=O)[C@H](CCCCN)NC(=O)[C@H](CCCCN)NC(=O)[C@H](CCCCN)NC(=O)[C@H](CCCCN)NC(=O)[C@H](CCCCN)NC(=O)[C@@H](N)CCCCN)C(N)=O` [KKKKKKAAFAAFAAFAA], the MIC in assay [10] is 8 µM (≈ 14.4 µg/mL); in [11], more than 32 µM; with Escherichia coli UB1005 it was 2 µM (≈ 3.59 µg/mL); in assay [12] it was 16 µM (≈ 28.7 µg/mL); in [2], 16 µM (≈ 28.7 µg/mL); in [13], 16 µM (≈ 28.7 µg/mL). This molecule also yielded an MIC in assay [14] of more than 32 µM.

As to `NCCCC[C@H](NC(=O)[C@H](Cc1c[nH]c2ccccc12)NC(=O)[C@H](CCC(N)=O)NC(=O)[C@H](Cc1c[nH]c2ccccc12)NC(=O)[C@H](CCCCN)NC(=O)[C@@H](N)CCCCN)C(=O)O` [KKWQWK], the MIC stood at 47 µM (≈ 42.4 µg/mL) in assay [12], 23 µM (≈ 20.8 µg/mL) in [15], 47 µM (≈ 42.4 µg/mL) in [2] and 47 µM (≈ 42.4 µg/mL) in assay [14].

In the case of `CC[C@H](C)[C@H](NC(=O)[C@H](CC(C)C)NC(=O)[C@H](CCCCN)NC(=O)[C@@H](NC(=O)[C@@H](NC(=O)[C@H](CCCN=C(N)N)NC(=O)[C@@H](N)CC(C)C)[C@@H](C)CC)C(C)C)C(=O)N[C@@H](CC(C)C)C(=O)N[C@@H](CCCCN)C(=O)N[C@@H](Cc1c[nH]c2ccccc12)C(=O)N[C@@H](CC(C)C)C(=O)N[C@@H](CCCN=C(N)N)C(N)=O` [LRIVKLILKWLR], the MIC in assay [4] was 2 µM (≈ 3.1 µg/mL); in assay [5], 8 µM (≈ 12.4 µg/mL); in assay [6], 4 µM (≈ 6.2 µg/mL); in assay [7], 16 µM (≈ 24.8 µg/mL); in assay [8], 16 µM (≈ 24.8 µg/mL); in assay [9] it was 4 µM (≈ 6.2 µg/mL).

As for `CC[C@H](C)[C@H](NC(=O)[C@H](CCCN=C(N)N)NC(=O)[C@H](CC(C)C)NC(=O)[C@H](CC(C)C)NC(=O)[C@@H](N)CCCN=C(N)N)C(=O)N[C@@H](Cc1c[nH]c2ccccc12)C(=O)N[C@@H](Cc1c[nH]c2ccccc12)C(=O)N[C@H](C(=O)N[C@@H](CCCN=C(N)N)C(=O)N[C@H](C(=O)N[C@@H](CC(C)C)C(=O)N[C@@H](CCCN=C(N)N)C(N)=O)C(C)C)[C@@H](C)CC` [RLLRIWWIRVLR], the MIC came out at 3.72 µM (≈ 6.25 µg/mL) in assay [4]; 7.44 µM (≈ 12.5 µg/mL) in assay [5]; 7.44 µM (≈ 12.5 µg/mL) in [6]; 14.9 µM (≈ 25 µg/mL) in assay [7]; 3.72 µM (≈ 6.25 µg/mL) in assay [8]; 1.86 µM (≈ 3.13 µg/mL) in [9].

(Values after DBAASP.)
